Laboratory results published in patent US5364842A (priority 1993, dated 1994).
Several values for one entry are separate records, joined by “and”; a condition that tells them apart may be missing. Equal entries are not always repeated.

What was measured:
[1] = system: rat tail-flick latency to heat stimulus; settings: in vivo
[2] = target: N-type or omega HVA neuronal calcium channels; calcium currents in N1E-115 neuroblastoma cells (Mus musculus, UniProt O55017); type: cell-based
[3] = system: potassium-stimulated dopamine release from striatal slices; type: cell-based, rat; settings: 1 µM
[4] = system: potassium-stimulated acetylcholine release from striatal slices; settings: 1 µM
[5] = system: voltage-gated calcium currents in IMR-32 cells; type: cell-based, human

Sequence of N-type or omega HVA neuronal calcium channels; calcium currents in N1E-115 neuroblastoma cells (O55017 whole entry): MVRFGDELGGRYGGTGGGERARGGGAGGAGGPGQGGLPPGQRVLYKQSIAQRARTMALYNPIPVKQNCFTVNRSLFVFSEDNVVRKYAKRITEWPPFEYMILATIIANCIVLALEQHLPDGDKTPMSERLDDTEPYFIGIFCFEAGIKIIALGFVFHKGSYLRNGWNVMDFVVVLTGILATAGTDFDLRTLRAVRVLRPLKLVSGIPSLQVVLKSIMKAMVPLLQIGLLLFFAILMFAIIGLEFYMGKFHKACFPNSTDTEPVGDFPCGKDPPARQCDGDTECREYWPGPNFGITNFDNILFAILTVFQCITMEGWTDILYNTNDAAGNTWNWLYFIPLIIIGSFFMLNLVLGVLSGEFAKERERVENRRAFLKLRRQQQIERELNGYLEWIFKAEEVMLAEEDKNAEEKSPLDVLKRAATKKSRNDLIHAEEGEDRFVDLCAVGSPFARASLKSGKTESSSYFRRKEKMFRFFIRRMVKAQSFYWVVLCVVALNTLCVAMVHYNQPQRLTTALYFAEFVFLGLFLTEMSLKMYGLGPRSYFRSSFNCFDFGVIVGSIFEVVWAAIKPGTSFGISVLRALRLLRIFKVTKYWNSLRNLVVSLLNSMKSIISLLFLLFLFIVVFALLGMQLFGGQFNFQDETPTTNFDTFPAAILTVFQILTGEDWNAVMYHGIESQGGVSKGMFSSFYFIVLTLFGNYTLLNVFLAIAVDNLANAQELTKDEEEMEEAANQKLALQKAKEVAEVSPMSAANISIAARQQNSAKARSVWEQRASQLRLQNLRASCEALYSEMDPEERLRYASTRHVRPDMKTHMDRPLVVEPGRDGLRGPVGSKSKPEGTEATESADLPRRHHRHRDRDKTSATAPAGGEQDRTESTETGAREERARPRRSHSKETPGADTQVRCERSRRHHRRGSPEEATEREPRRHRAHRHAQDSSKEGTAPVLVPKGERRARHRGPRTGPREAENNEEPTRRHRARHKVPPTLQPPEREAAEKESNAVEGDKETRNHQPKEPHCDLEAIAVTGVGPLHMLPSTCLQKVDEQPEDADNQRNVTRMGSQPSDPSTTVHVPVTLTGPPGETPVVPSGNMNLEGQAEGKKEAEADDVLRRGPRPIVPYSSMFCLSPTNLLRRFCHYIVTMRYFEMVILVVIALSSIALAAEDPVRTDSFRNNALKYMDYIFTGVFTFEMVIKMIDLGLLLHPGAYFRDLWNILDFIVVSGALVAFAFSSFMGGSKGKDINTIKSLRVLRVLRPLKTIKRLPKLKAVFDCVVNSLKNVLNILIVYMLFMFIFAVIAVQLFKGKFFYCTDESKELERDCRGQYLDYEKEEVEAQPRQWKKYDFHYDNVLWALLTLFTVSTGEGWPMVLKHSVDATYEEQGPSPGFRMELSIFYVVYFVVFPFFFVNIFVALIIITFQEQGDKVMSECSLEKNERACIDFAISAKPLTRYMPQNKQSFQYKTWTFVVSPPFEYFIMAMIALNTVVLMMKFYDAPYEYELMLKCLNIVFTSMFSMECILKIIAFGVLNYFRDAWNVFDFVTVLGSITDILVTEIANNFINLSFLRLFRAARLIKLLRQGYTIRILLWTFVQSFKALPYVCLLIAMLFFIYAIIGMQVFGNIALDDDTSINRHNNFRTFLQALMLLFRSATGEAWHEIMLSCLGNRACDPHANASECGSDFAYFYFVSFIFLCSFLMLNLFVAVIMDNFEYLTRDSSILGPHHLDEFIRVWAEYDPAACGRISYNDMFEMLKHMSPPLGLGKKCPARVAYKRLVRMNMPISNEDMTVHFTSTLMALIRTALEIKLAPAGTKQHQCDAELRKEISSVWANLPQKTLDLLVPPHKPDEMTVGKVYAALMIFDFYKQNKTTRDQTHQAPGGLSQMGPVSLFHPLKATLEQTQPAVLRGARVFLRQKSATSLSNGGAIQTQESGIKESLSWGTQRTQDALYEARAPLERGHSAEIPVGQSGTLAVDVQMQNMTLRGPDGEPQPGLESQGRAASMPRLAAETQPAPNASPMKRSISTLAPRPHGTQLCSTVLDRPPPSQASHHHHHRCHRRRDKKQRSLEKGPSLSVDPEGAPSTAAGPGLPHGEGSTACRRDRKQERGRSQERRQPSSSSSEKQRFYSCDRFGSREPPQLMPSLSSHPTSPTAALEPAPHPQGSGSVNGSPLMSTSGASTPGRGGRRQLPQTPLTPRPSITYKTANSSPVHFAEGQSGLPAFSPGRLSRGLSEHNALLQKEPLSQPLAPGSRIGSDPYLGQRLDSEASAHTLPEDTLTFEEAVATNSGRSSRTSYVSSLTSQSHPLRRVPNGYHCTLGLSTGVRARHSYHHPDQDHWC
Sequence of N-type or omega HVA neuronal calcium channels; calcium currents in N1E-115 neuroblastoma cells (O08532 25-956 partner limits assumed): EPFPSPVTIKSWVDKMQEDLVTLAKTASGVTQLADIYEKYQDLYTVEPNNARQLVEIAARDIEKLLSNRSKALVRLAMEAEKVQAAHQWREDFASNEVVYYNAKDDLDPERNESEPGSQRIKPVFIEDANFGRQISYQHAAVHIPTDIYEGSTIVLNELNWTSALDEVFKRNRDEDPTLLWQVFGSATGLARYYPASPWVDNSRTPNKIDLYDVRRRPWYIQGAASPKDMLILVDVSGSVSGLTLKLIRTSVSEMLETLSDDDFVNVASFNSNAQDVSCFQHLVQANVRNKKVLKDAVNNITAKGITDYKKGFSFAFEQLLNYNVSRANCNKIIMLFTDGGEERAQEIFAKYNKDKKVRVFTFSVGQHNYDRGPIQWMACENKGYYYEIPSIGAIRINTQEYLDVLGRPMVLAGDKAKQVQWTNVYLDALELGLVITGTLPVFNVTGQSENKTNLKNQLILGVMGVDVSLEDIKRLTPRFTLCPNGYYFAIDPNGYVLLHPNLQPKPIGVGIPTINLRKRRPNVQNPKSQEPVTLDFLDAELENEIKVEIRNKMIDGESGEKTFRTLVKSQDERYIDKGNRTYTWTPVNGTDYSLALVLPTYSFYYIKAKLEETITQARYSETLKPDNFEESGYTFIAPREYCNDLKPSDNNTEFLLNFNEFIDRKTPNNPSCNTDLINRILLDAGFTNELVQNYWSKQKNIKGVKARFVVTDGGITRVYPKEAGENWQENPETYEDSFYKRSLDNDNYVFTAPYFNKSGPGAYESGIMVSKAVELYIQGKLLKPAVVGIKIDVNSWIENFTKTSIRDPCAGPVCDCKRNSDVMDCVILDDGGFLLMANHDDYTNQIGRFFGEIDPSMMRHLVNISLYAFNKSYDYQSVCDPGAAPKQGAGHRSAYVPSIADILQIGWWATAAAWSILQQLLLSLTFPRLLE
Sequence of N-type or omega HVA neuronal calcium channels; calcium currents in N1E-115 neuroblastoma cells (O08532 957-1103 partner limits assumed): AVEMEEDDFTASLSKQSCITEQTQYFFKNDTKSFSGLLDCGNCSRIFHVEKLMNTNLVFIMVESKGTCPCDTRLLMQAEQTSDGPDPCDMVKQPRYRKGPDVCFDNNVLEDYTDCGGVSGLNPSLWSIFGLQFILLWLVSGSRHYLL

Compound: CN1CC[C@]23c4c5ccc(O)c4O[C@H]2[C@@H](O)C=C[C@H]3[C@H]1C5 [Morphine, morphine]
- Analgesia (% Effect), mean MPE [1]: 23
- Latency Percent Effect, mean [1]: 17 and 19 and 18
- Latency Percent Effect, mean MPE [1]: 26

Compound: COC(=O)C1=C(C)NC(C)=C(C(=O)OC)C1c1ccccc1[N+](=O)[O-] [nifedipine]
- effect on the measured calcium current [2]: no effect

Compound: amiodipine
- % inhibition of [3H]dopamine release [3]: 0
- % inhibition of [3H]acetylcholine release [4]: 0

Compound: cadmium
- effect of addition to the medium on remaining voltage-gated calcium currents [5]: blockade of all remaining voltage-gated calcium currents
